# Measurements: US11590129B2, “Combination therapy with an antitumor alkaloid” (PHARMA MAR, S.A., priority 2010, dated 2023)
# pIC50: −log10 of the molar value.
# Key:
# [1] = test system: MDA-MB-231 human breast adenocarcinoma cell line; assay: cells; conditions: Homo sapiens, MDA-MB-231, 72 h
# [2] = test system: RXF-393 human kidney carcinoma cell line; assay: cells; conditions: Homo sapiens, RXF 393, 72 h
# A2780 tumors = assay: Human ovarian tumor xenografts (A2780) in athymic nude mice, tumor volume % T/C; format: in vivo
# Experimental: Female athymic nude mice (Harlan Laboratories Models, S.L. (Barcelona, Spain) were utilized for all experiments. Animals were housed in individually ventilated cages, up to ten per cage in a 12-hour light-dark cycle at 21-23° C. and 40-60% humidity. The mice were allowed free access to irradiated standard rodent diet and sterilized water. Animals were acclimated for at least 5 days prior to tumor implantation with a tumor cell suspension.
# The formula to calculate volume for a prolate ellipsoid was used to estimate tumor volume (mm^3) from 2-dimensional tumor measurements: Tumor volume (mm^3)=[L×W^2]÷2, where L is the length and it is the longest diameter in mm, and W is the width and it is the shortest diameter in mm of a tumor. Assuming unit density, volume was converted to weight (i.e., 1 mm^3=1 mg). Tumor volume and animal body weights were measured 2-3 times per week starting form the first day of treatment (Day 0).
# PM01183 was provided in the form of vials of lyophilized PM01183 cake which was reconstituted with water for infusion to a concentration of 0.2 mg/mL. The PM01183 stock solution was further diluted in 5% glucose solution for injection to the dosing formulation concentrations. […] Vinorelbine was provided as a solution prepared by diluting the product with 0.9% saline solution.
# Dose level groups were administered either as single agents or in combination.
# Comparison of the median tumor volume in the treatment groups (T) to the median tumor volume in the control group (T/C×100%) was used for evaluation of the antitumor efficacy.
# Day 9 for PM01183 and vinorelbine study) using the median-effect principle (Chou T. C. Pharmacol. Rev.
# HT-29 tumors = assay: Human colorectal tumor xenografts (HT-29) in athymic nude mice, tumor volume % T/C
# [3] = test system: HGC-27 human gastric carcinoma cell line; assay: cells; conditions: Homo sapiens, HGC-27, 72 h
# [4] = PM01183 0.045 mg/kg iv days 0,7, doxorubicin study
# [5] = PM01183 0.045 mg/kg iv days 0,7, paclitaxel study
# [6] = PM01183 0.045 mg/kg iv days 0,7, vinorelbine study
# [7] = PM01183 0.09 mg/kg iv days 0,7, doxorubicin study
# [8] = PM01183 0.09 mg/kg iv days 0,7, paclitaxel study
# [9] = PM01183 0.09 mg/kg iv days 0,7, vinorelbine study
# [10] = PM01183 0.135 mg/kg iv days 0,7, doxorubicin study
# [11] = PM01183 0.135 mg/kg iv days 0,7, paclitaxel study
# [12] = PM01183 0.135 mg/kg iv days 0,7, vinorelbine study
# [13] = PM01183 0.18 mg/kg iv days 0,7, doxorubicin study
# [14] = PM01183 0.18 mg/kg iv days 0,7, paclitaxel study
# [15] = PM01183 0.18 mg/kg iv days 0,7, vinorelbine study
smiles,measurement,setting,value
COc1ccc2[nH]c3c(c2c1)CCN[C@]31CS[C@@H]2c3c(OC(C)=O)c(C)c4c(c3[C@H](COC1=O)N1[C@@H]2[C@H]2c3c(cc(C)c(OC)c3O)C[C@@H]([C@@H]1O)N2C)OCO4 [PM01183],pIC50,[1],8.46
same,pIC50,[2],8.30
same,% T/C on day 0,A2780 tumors; [4],100.1%
same,% T/C on day 3,A2780 tumors; [4],98.2%
same,% T/C on day 5,A2780 tumors; [4],98.6%
same,% T/C on day 7,A2780 tumors; [4],97.7%
same,% T/C on day 10,A2780 tumors; [4],90.0%
same,% T/C on day 0,A2780 tumors; [5],94.0%
same,% T/C on day 3,A2780 tumors; [5],91.1%
same,% T/C on day 5,A2780 tumors; [5],99.6%
same,% T/C on day 7,A2780 tumors; [5],88.0%
same,% T/C on day 10,A2780 tumors; [5],73.1%
same,% T/C on day 0,A2780 tumors; [6],97.8%
same,% T/C on day 2,A2780 tumors; [6],107.5%
same,% T/C on day 5,A2780 tumors; [6],93.6%
same,% T/C on day 7,A2780 tumors; [6],92.5%
same,% T/C on day 9,A2780 tumors; [6],97.1%
same,% T/C on day 0,A2780 tumors; [7],100.2%
same,% T/C on day 3,A2780 tumors; [7],93.3%
same,% T/C on day 5,A2780 tumors; [7],95.2%
same,% T/C on day 7,A2780 tumors; [7],93.5%
same,% T/C on day 10,A2780 tumors; [7],87.7%
same,% T/C on day 0,A2780 tumors; [8],94.2%
same,% T/C on day 3,A2780 tumors; [8],88.5%
same,% T/C on day 5,A2780 tumors; [8],114.1%
same,% T/C on day 7,A2780 tumors; [8],103.3%
same,% T/C on day 10,A2780 tumors; [8],88.0%
same,% T/C on day 0,A2780 tumors; [9],98.0%
same,% T/C on day 2,A2780 tumors; [9],88.6%
same,% T/C on day 5,A2780 tumors; [9],61.2%
same,% T/C on day 7,A2780 tumors; [9],87.6%
same,% T/C on day 9,A2780 tumors; [9],94.5%
same,% T/C on day 0,A2780 tumors; [10],102.2%
same,% T/C on day 3,A2780 tumors; [10],82.4%
same,% T/C on day 5,A2780 tumors; [10],86.6%
same,% T/C on day 7,A2780 tumors; [10],89.2%
same,% T/C on day 10,A2780 tumors; [10],82.4%
same,% T/C on day 0,A2780 tumors; [11],101.2%
same,% T/C on day 3,A2780 tumors; [11],89.9%
same,% T/C on day 5,A2780 tumors; [11],99.8%
same,% T/C on day 7,A2780 tumors; [11],84.5%
same,% T/C on day 10,A2780 tumors; [11],61.2%
same,% T/C on day 0,A2780 tumors; [12],98.3%
same,% T/C on day 2,A2780 tumors; [12],105.3%
same,% T/C on day 5,A2780 tumors; [12],77.2%
same,% T/C on day 7,A2780 tumors; [12],79.1%
same,% T/C on day 9,A2780 tumors; [12],78.7%
same,% T/C on day 0,A2780 tumors; [13],100.9%
same,% T/C on day 3,A2780 tumors; [13],70.2%
same,% T/C on day 5,A2780 tumors; [13],68.5%
same,% T/C on day 7,A2780 tumors; [13],69.3%
same,% T/C on day 10,A2780 tumors; [13],62.1%
same,% T/C on day 0,A2780 tumors; [14],101.6%
same,% T/C on day 3,A2780 tumors; [14],68.9%
same,% T/C on day 5,A2780 tumors; [14],83.1%
same,% T/C on day 7,A2780 tumors; [14],69.1%
same,% T/C on day 10,A2780 tumors; [14],52.8%
same,% T/C on day 0,A2780 tumors; [15],98.9%
same,% T/C on day 2,A2780 tumors; [15],101.6%
same,% T/C on day 5,A2780 tumors; [15],72.2%
same,% T/C on day 7,A2780 tumors; [15],61.3%
same,% T/C on day 9,A2780 tumors; [15],62.8%
same,% T/C on day 0,HT-29 tumors; PM01183 0.045 mg/kg,99.8%
same,% T/C on day 3,HT-29 tumors; PM01183 0.045 mg/kg,103.7%
same,% T/C on day 5,HT-29 tumors; PM01183 0.045 mg/kg,100.6%
same,% T/C on day 7,HT-29 tumors; PM01183 0.045 mg/kg,111.1%
same,% T/C on day 10,HT-29 tumors; PM01183 0.045 mg/kg,135.8%
same,% T/C on day 12,HT-29 tumors; PM01183 0.045 mg/kg,125.1%
same,% T/C on day 14,HT-29 tumors; PM01183 0.045 mg/kg,109.3%
same,% T/C on day 0,HT-29 tumors; PM01183 0.09 mg/kg,98.4%
same,% T/C on day 3,HT-29 tumors; PM01183 0.09 mg/kg,100.9%
same,% T/C on day 5,HT-29 tumors; PM01183 0.09 mg/kg,88.7%
same,% T/C on day 7,HT-29 tumors; PM01183 0.09 mg/kg,121.9%
same,% T/C on day 10,HT-29 tumors; PM01183 0.09 mg/kg,129.8%
same,% T/C on day 12,HT-29 tumors; PM01183 0.09 mg/kg,114.1%
same,% T/C on day 14,HT-29 tumors; PM01183 0.09 mg/kg,109.4%
same,% T/C on day 17,HT-29 tumors; PM01183 0.09 mg/kg,116.1%
same,% T/C on day 20,HT-29 tumors; PM01183 0.09 mg/kg,93.4%
same,% T/C on day 0,HT-29 tumors; PM01183 0.135 mg/kg,98.4%
same,% T/C on day 3,HT-29 tumors; PM01183 0.135 mg/kg,106.4%
same,% T/C on day 5,HT-29 tumors; PM01183 0.135 mg/kg,95.3%
same,% T/C on day 7,HT-29 tumors; PM01183 0.135 mg/kg,116.6%
same,% T/C on day 10,HT-29 tumors; PM01183 0.135 mg/kg,115.2%
same,% T/C on day 12,HT-29 tumors; PM01183 0.135 mg/kg,119.1%
same,% T/C on day 14,HT-29 tumors; PM01183 0.135 mg/kg,121.5%
same,% T/C on day 17,HT-29 tumors; PM01183 0.135 mg/kg,133.1%
same,% T/C on day 20,HT-29 tumors; PM01183 0.135 mg/kg,105.2%
same,% T/C on day 0,HT-29 tumors; PM01183 0.18 mg/kg,100.4%
same,% T/C on day 3,HT-29 tumors; PM01183 0.18 mg/kg,108.4%
same,% T/C on day 5,HT-29 tumors; PM01183 0.18 mg/kg,86.5%
same,% T/C on day 7,HT-29 tumors; PM01183 0.18 mg/kg,101.1%
same,% T/C on day 10,HT-29 tumors; PM01183 0.18 mg/kg,116.5%
same,% T/C on day 12,HT-29 tumors; PM01183 0.18 mg/kg,115.4%
same,% T/C on day 14,HT-29 tumors; PM01183 0.18 mg/kg,123.4%
same,% T/C on day 17,HT-29 tumors; PM01183 0.18 mg/kg,86.7%
same,% T/C on day 20,HT-29 tumors; PM01183 0.18 mg/kg,77.5%
same,pIC50,[3],9.07
